Experimental data from ChEMBL document CHEMBL3244311, “Neuroleptics related to butaclamol. Synthesis and some psychopharmacological effects of a series of 3-aryl analogues” (J Med Chem, 1978).

Assays:
[1] = system: Rattus norvegicus; test: Antipsychotic activity in ip dosed Sprague-Dawley rat assessed as protection against epinephrine-induced mortality administered 1 hr prior to epinephrine-challenge measured up to 24 hrs; format: functional
[2] = system: Rattus norvegicus; test: Antipsychotic activity in ip dosed Sprague-Dawley rat assessed as inhibition of amphetamine-induced stereotyped-behavior administered 15 mins post amphetamine-challenge measured for 4 hrs; format: functional; details: for minimal effective dose: read-out: MED
[3] = system: Rattus norvegicus; test: Relative adrenolytic potency, ratio of ED50 for protection against epinephrine-induced mortality in ip dosed Sprague-Dawley rat to MED for suppression of conditioned avoidance response in ip dosed Sprague-Dawley rat; format: functional
[4] = species: Rattus norvegicus; test: Toxicity in Sprague-Dawley rat assessed as catalepsy at 10 times MED after 1 to 24 hrs relative to control; format: organism-based; details: in vivo
[5] = system: Rattus norvegicus; test: Antipsychotic activity in ip dosed Sprague-Dawley rat assessed as suppression of conditioned avoidance response after 30 mins; format: functional
[6] = species: Rattus norvegicus; test: Toxicity in Sprague-Dawley rat assessed as catalepsy at 10 times MED assessed as time required to reach peak effect; format: organism-based; details: in vivo
[7] = system: Rattus norvegicus; test: Ratio of MED for inhibition of amphetamine-induced stereotyped-behavior in ip dosed Sprague-Dawley rat to ED50 for suppression of conditioned avoidance response in ip dosed Sprague-Dawley rat; format: functional

Compound | ED50 [1] | inhibition [2] | minimal effective dose [2] | Ratio [3] | %max [4] | ED50 ([5]; 0.5 h) | Time [6] | Ratio [7] | MED [2] | ED50 [5]
Cl.O[C@]1(c2ccccc2)CCN2C[C@@H]3c4ccccc4CCc4cccc(c43)[C@H]2C1 (racemic) | 5.5 mg/kg | Dose-dependent effect | 2.5 mg/kg | 2.2 | 32% | 3 mg/kg | 6 h | – | – | –
Cc1ccccc1[C@@]1(O)CCN2C[C@@H]3c4ccccc4CCc4cccc(c43)[C@H]2C1.Cl (racemic) | 6.4 mg/kg | Dose-dependent effect | 1.25 mg/kg | 5.1 | 61% | 3.3 mg/kg | 4 h | 0.38 | – | –
Cl.O[C@]1(Cc2ccccc2)CCN2C[C@@H]3c4ccccc4CCc4cccc(c43)[C@H]2C1 (racemic) | > 40 mg/kg | Dose-dependent effect | > 20 mg/kg | – | – | – | – | – | – | –
COc1ccccc1[C@@]1(O)CCN2C[C@@H]3c4ccccc4CCc4cccc(c43)[C@H]2C1.Cl (racemic) | 4 mg/kg | Dose-dependent effect | 0.63 mg/kg | 6.3 | 89% | 0.92 mg/kg | 4 h | – | – | –
COc1cccc([C@@]2(O)CCN3C[C@@H]4c5ccccc5CCc5cccc(c54)[C@H]3C2)c1.Cl (racemic) | 2.7 mg/kg | Dose-dependent effect | 1.25 mg/kg | 2.2 | 83% | 1.4 mg/kg | 6 h | – | – | –
COc1ccc([C@@]2(O)CCN3C[C@@H]4c5ccccc5CCc5cccc(c54)[C@H]3C2)cc1.Cl (racemic) | 13.2 mg/kg | Dose-dependent effect | 2.5 mg/kg | 5.3 | 83% | 5.8 mg/kg | 6 h | 0.43 | – | –
COc1ccc([C@@]2(O)CCN3C[C@@H]4c5ccccc5CCc5cccc(c54)[C@H]3C2)cc1OC.Cl (racemic) | 1.1 mg/kg | Dose-dependent effect | 5 mg/kg | 0.22 | 100% | 6 mg/kg | 4 h | – | – | –
COc1ccc([C@@]2(O)CCN3C[C@@H]4c5ccccc5CCc5cccc(c54)[C@H]3C2)c(OC)c1.Cl (racemic) | 18 mg/kg | Dose-dependent effect | 10 mg/kg | 1.8 | 44% | 16 mg/kg | 6 h | – | – | –
Cl.O[C@]1(c2ccccc2Cl)CCN2C[C@@H]3c4ccccc4CCc4cccc(c43)[C@H]2C1 (racemic) | 11 mg/kg | Dose-dependent effect | 2.5 mg/kg | 4.4 | 100% | 3.3 mg/kg | 4 h | – | – | –
Cl.O[C@]1(c2cccc(F)c2)CCN2C[C@@H]3c4ccccc4CCc4cccc(c43)[C@H]2C1 (racemic) | 14.3 mg/kg | Dose-dependent effect | 5 mg/kg | 2.9 | 100% | 7 mg/kg | 4 h | – | – | –
Cl.O[C@]1(c2ccc(Br)cc2)CCN2C[C@@H]3c4ccccc4CCc4cccc(c43)[C@H]2C1 (racemic) | 6.9 mg/kg | Dose-dependent effect | 20 mg/kg | 0.35 | 72% | 14 mg/kg | 4 h | – | – | –
Cl.O[C@]1(c2ccccc2C(F)(F)F)CCN2C[C@@H]3c4ccccc4CCc4cccc(c43)[C@H]2C1 (racemic) | > 20 mg/kg | Dose-dependent effect | 10 mg/kg | >2 | 100% | 22.2 mg/kg | 6 h | 0.45 | – | –
Cl.O[C@]1(c2cccs2)CCN2C[C@@H]3c4ccccc4CCc4cccc(c43)[C@H]2C1 (racemic) | 22 mg/kg | Dose-dependent effect | 2.5 mg/kg | 8.8 | 100% | 5.6 mg/kg | 6 h | 0.45 | – | –
Cl.O[C@]1(c2ccsc2)CCN2C[C@@H]3c4ccccc4CCc4cccc(c43)[C@H]2C1 (racemic) | 90 mg/kg | Dose-dependent effect | 5 mg/kg | 18 | 93% | 8 mg/kg | 6 h | – | – | –
Cl.O[C@]1(c2ccco2)CCN2C[C@@H]3c4ccccc4CCc4cccc(c43)[C@H]2C1 (racemic) | 82 mg/kg | Dose-dependent effect | 5 mg/kg | 16.4 | 83% | 6.7 mg/kg | 4 h | – | – | –
Cl.O[C@]1(c2cccnc2)CCN2C[C@@H]3c4ccccc4CCc4cccc(c43)[C@H]2C1 (racemic) | 4.7 mg/kg | Dose-dependent effect | 5 mg/kg | 0.94 | 94% | 1 mg/kg | 4 h | – | – | –
CN(C)CCCN1c2ccccc2Sc2ccc(Cl)cc21 [CHLORPROMAZINE] | – | – | – | – | – | – | – | 1 | – | –
OCCN1CCN(CCCN2c3ccccc3Sc3ccc(C(F)(F)F)cc32)CC1 [FLUPHENAZINE] | – | – | – | – | – | – | – | 1 | – | –
O=C(CCCN1CCC(O)(c2ccc(Cl)cc2)CC1)c1ccc(F)cc1 [HALOPERIDOL] | – | – | – | – | – | – | – | 1 | – | –
CSc1ccc2c(c1)N(CCC1CCCCN1C)c1ccccc1S2 (stereo unspecified) [THIORIDAZINE] | – | – | – | – | – | – | – | 1 | – | –
Butaclamol | 15 mg/kg | – | – | 24 | – | – | – | 1 | 0.63 mg/kg | 0.64 mg/kg
